Results published in patent US20100087649A1, “QUINOLINONE DERIVATIVES” (priority 2006, published 2010).

Assays:
[1] = tested on: wild-type HIV-IIIB strain; test: Antiviral analysis EGFP: anti-HIV activity in MT4 LTR-EGFP cells; format: cell-based, HIV-1; conditions: fluorescence of HIV-infected cells reduced by 50%, three days after infection
Protocol: The compounds of the present invention were tested for anti-viral activity in a cellular assay, which was performed according to the following procedure.
The human T-cell line MT4 is engineered with Green Fluorescent Protein (GFP) and an HIV-specific promoter, HIV-1 long terminal repeat (LTR). This cell line is designated MT4 LTR-EGFP, and can be used for the in vitro evaluation of anti-HIV activity of investigational compounds. In HIV-1 infected cells, the Tat protein is produced which upregulates the LTR promotor and finally leads to stimulation of the GFP reporter production, allowing measuring ongoing HIV-infection fluorometrically.
(§1) Effective concentration values such as 50% effective concentration (EC50) can be determined and are usually expressed in μM. An EC50 value is defined as the concentration of test compound that reduces the fluorescence of HIV-infected cells by 50%. The 50% cytotoxic concentration (CC50 in μM) is defined as the concentration of test compound that reduces fluorescence of the mock-infected cells by 50%. The ratio of CC50 to EC50 is defined as the selectivity index (SI) and is an indication of the selectivity of the anti-HIV activity of the inhibitor. The ultimate monitoring of HIV-1 infection and cytotoxicity is done using a scanning microscope. Image analysis allows very sensitive detection of viral infection. Measurements are done before cell necrosis, which usually takes place about five days after infection, in particular measurements are performed three days after infection.
The following Table 5 lists EC50 values, expressed in micromole/liter, against wild-type HIV-IIIB strain, for a selected number of compounds of the invention.

[2] = Cytotoxicity in mock-infected MT4 CMV-EGFP cells; format: cell-based, human; conditions: human, fluorescence reduced by 50%
Excerpt: (§2) Analogously, MT4 cells are engineered with GFP and the constitutional cytomegalovirus (CMV) promotor. This cell line is designated MT4 CMV-EGFP, and can be used for the in vitro evaluation of cytotoxicity of investigational compounds. In this cell line, GFP levels are comparably to those of infected MT4 LTR-EGFP cells. Cytotoxic investigational compounds reduce GFP levels of mock-infected MT4 CMV-EGFP cells.
as §1

MT4 CMV-EGFP cells = test: Cytotoxicity in mock-infected MT4 CMV-EGFP cells; format: cell-based, human; conditions: fluorescence reduced by 50%
Excerpt: as §2, §1

[3] = Human immunodeficiency virus 1, 72 h

| SMILES | EC50 [1, 3] | CC50 at 3 days [2] | EC50 [1] | CC50 (MT4 CMV-EGFP cells) |
| --- | --- | --- | --- | --- |
| Cc1ccc(-n2c(=O)c(C#N)cc3ccccc32)cc1C#N [compound 163] | 9.25 µM | > 100 µM | – | – |
| N#Cc1cc2ccc(=O)[nH]c2n(-c2ccc([N+](=O)[O-])cc2)c1=O [compound 100] | > 32 µM | > 32 µM | – | – |
| N#Cc1cc2ccc(-c3ccccc3)cc2n(-c2ccc([N+](=O)[O-])cc2)c1=O [compound 28] | 1.34 µM | > 32 µM | – | – |
| Cc1ccc(-n2c(=O)c(C#N)cc3ccc(OCCCN4CCCC4)cc32)cc1C#N [compound 148] | 0.64 µM | 51.5 µM | – | – |
| COc1cc2cc(C#N)c(=O)n(-c3ccc([N+](=O)[O-])cc3)c2cc1OC [compound 93] | 7.01 µM | > 32 µM | – | – |
| N#Cc1cc2ccc(OCCNCCO)cc2n(-c2ccc([N+](=O)[O-])cc2)c1=O [compound 71] | > 32 µM | > 32 µM | – | – |
| Cc1ccc(-n2c(=O)c(C#N)cc3ccc(NCCCN4CCCC4)cc32)cc1C#N [compound 157] | 0.89 µM | 52.7 µM | – | – |
| Cc1ccc(-n2c(=O)c(C#N)c(N)c3ccc(Br)cc32)cc1C#N [compound 121] | 0.75 µM | 55.2 µM | – | – |
| N#Cc1cc2ccc(O)cc2n(-c2ccc([N+](=O)[O-])cc2)c1=O [compound 10] | 13.3 µM | > 32 µM | – | – |
| N#Cc1cc2ccc(-n3cccc3)cc2n(-c2ccc([N+](=O)[O-])cc2)c1=O [compound 25] | 0.95 µM | 97.2 µM | – | – |
| N#Cc1cc2cccnc2n(-c2ccc([N+](=O)[O-])cc2)c1=O [compound 99] | 19.3 µM | > 32 µM | – | – |
| Cc1ccc(-n2c(=O)c(C#N)cc3ccc(Br)cc32)cc1C#N [compound 149] | 2.74 µM | > 100 µM | – | – |
| N#Cc1cc2ccccc2n(-c2ccc([N+](=O)[O-])cc2)c1=O [compound 1] | 2.89 µM | > 100 µM | – | – |
| COc1ccc2c(N)c(C#N)c(=O)n(-c3ccc(C)c(C#N)c3)c2c1 [compound 145] | 3.01 µM | > 100 µM | – | – |
| N#Cc1cc2ccc(-n3ccnc3)cc2n(-c2ccc([N+](=O)[O-])cc2)c1=O [compound 27] | 1.13 µM | > 100 µM | – | – |
| N#Cc1cc2ccc(-c3ccncc3)cc2n(-c2ccc([N+](=O)[O-])cc2)c1=O [compound 29] | – | – | 0.92 µM | > 32 µM |
| Cc1ccc(-n2c(=O)c(C#N)cc3ccc(-c4ccccn4)cc32)cc1C#N [compound 159] | 1.74 µM | 86 µM | – | – |
| N#Cc1cc2ccc(-c3ccc(C(=O)O)s3)cc2n(-c2ccc([N+](=O)[O-])cc2)c1=O [compound 47] | – | – | > 100 µM | > 100 µM |
| Cc1ccc(-n2c(=O)c(C#N)c(N)c3ccc(-c4ccsc4)cc32)cc1C#N [compound 125] | – | – | 4.11 µM | > 100 µM |

| SMILES | EC50 [1, 3] | CC50 at 3 days [2] | EC50 [1] | CC50 (MT4 CMV-EGFP cells) |
| --- | --- | --- | --- | --- |
| CC(=O)NCc1cccc(-c2ccc3cc(C#N)c(=O)n(-c4ccc([N+](=O)[O-])cc4)c3c2)c1 [compound 43] | – | – | 0.93 µM | > 100 µM |
| N#Cc1c(N)c2cc(F)c(Cl)cc2n(-c2ccc([N+](=O)[O-])cc2)c1=O [compound 108] | – | – | 0.9 µM | > 100 µM |
| N#Cc1cc2ccc(NCCCN3CCCC3)cc2n(-c2ccc([N+](=O)[O-])cc2)c1=O [compound 21] | – | – | 0.21 µM | 69.5 µM |
| CC(=O)NCCCOc1ccc2cc(C#N)c(=O)n(-c3ccc([N+](=O)[O-])cc3)c2c1 [compound 69] | – | – | 10.2 µM | > 100 µM |
| N#Cc1cc2ccc(OCCN3CCOCC3)cc2n(-c2ccc([N+](=O)[O-])cc2)c1=O [compound 55] | – | – | 13.5 µM | > 32 µM |
| N#Cc1cc2cc(OCCN)ccc2n(-c2ccc([N+](=O)[O-])cc2)c1=O [compound 86] | – | – | 1.18 µM | > 32 µM |
| Cc1ccc(-n2c(=O)c(C#N)c(N)c3ccc(-c4cccs4)cc32)cc1C#N [compound 126] | – | – | 5.7 µM | > 100 µM |
| CN(C)CCCOc1ccc2cc(C#N)c(=O)n(-c3ccc([N+](=O)[O-])cc3)c2c1 [compound 64] | – | – | 0.47 µM | 70.6 µM |
| CC(=O)Nc1cccc(-c2ccc3cc(C#N)c(=O)n(-c4ccc(C)c(C#N)c4)c3c2)c1 [compound 155] | – | – | 11 µM | > 100 µM |
| N#Cc1ccc2cc(C#N)c(=O)n(-c3ccc([N+](=O)[O-])cc3)c2c1 [compound 96] | – | – | 13.5 µM | > 100 µM |
| N#Cc1c(NCC2CCNC2)c2ccccc2n(-c2ccc([N+](=O)[O-])cc2)c1=O (stereo not drawn) [compound 143] | – | – | 11.3 µM | > 100 µM |
| N#Cc1c(N)c2cc(Cl)ccc2n(-c2ccc([N+](=O)[O-])cc2)c1=O [compound 107] | – | – | > 100 µM | > 100 µM |
| N#Cc1cc2ccc(NCc3cccnc3)cc2n(-c2ccc([N+](=O)[O-])cc2)c1=O [compound 23] | – | – | > 32 µM | > 32 µM |
| N#Cc1cc2ccc(-c3cc[nH]n3)cc2n(-c2ccc([N+](=O)[O-])cc2)c1=O [compound 46] | – | – | 0.16 µM | > 100 µM |
| N#Cc1cc2cc(OCCCN)ccc2n(-c2ccc([N+](=O)[O-])cc2)c1=O [compound 84] | – | – | 3.64 µM | 15.5 µM |
| CN(C)CCCNc1ccc2cc(C#N)c(=O)n(-c3ccc([N+](=O)[O-])cc3)c2c1 [compound 20] | – | – | 0.3 µM | 49 µM |
| CN(C)CCOc1ccc2c(c1)cc(C#N)c(=O)n2-c1ccc([N+](=O)[O-])cc1 [compound 90] | – | – | 0.89 µM | > 32 µM |
| N#Cc1cc2ccc(-c3cccc(C(N)=O)c3)cc2n(-c2ccc([N+](=O)[O-])cc2)c1=O [compound 42] | – | – | 2.85 µM | > 100 µM |
| CC(=O)NCCNc1c(C#N)c(=O)n(-c2ccc([N+](=O)[O-])cc2)c2ccccc12 [compound 141] | – | – | 32.2 µM | > 100 µM |

| SMILES | EC50 [1, 3] | CC50 at 3 days [2] | EC50 [1] | CC50 (MT4 CMV-EGFP cells) |
| --- | --- | --- | --- | --- |
| N#Cc1cc2ccc(-c3cccs3)cc2n(-c2ccc([N+](=O)[O-])cc2)c1=O [compound 36] | – | – | 0.76 µM | > 100 µM |
| N#Cc1cc2ccc(-c3cccnc3)cc2n(-c2ccc([N+](=O)[O-])cc2)c1=O [compound 33] | – | – | 0.83 µM | > 100 µM |
| CC(=O)NCc1cccc(-c2ccc3cc(C#N)c(=O)n(-c4ccc(C)c(C#N)c4)c3c2)c1 [compound 151] | – | – | 2.22 µM | > 100 µM |
| CNCCCNc1ccc2cc(C#N)c(=O)n(-c3ccc([N+](=O)[O-])cc3)c2c1 [compound 22] | – | – | 0.36 µM | 88.7 µM |
| N#Cc1c(NCCc2c[nH]cn2)c2ccccc2n(-c2ccc([N+](=O)[O-])cc2)c1=O [compound 144] | – | – | 3.84 µM | > 100 µM |
| Cc1ccc(-n2c(=O)c(C#N)cc3ccc(-c4cc[nH]n4)cc32)cc1C#N [compound 153] | – | – | 0.53 µM | > 100 µM |
| N#Cc1cc2ccc(OCCN3CCCC3)cc2n(-c2ccc([N+](=O)[O-])cc2)c1=O [compound 52] | – | – | 2.45 µM | > 32 µM |
| N#Cc1c(N)c2cccnc2n(-c2ccc([N+](=O)[O-])cc2)c1=O [compound 129] | – | – | 18.3 µM | > 32 µM |
| N#Cc1cc2ccc(OCCCNCCO)cc2n(-c2ccc([N+](=O)[O-])cc2)c1=O [compound 72] | – | – | 0.93 µM | > 32 µM |
| CN(C)CCOc1ccc2cc(C#N)c(=O)n(-c3ccc([N+](=O)[O-])cc3)c2c1 [compound 62] | – | – | 4.29 µM | > 32 µM |
| N#Cc1c(NCCCN)c2ccccc2n(-c2ccc([N+](=O)[O-])cc2)c1=O [compound 137] | – | – | 3.66 µM | 45.1 µM |
| N#Cc1cc2cc3c(cc2n(-c2ccc(Cl)nc2)c1=O)OCO3 [compound 97] | – | – | > 32 µM | > 32 µM |
| N#Cc1cc2ccc(OCCCCN)cc2n(-c2ccc([N+](=O)[O-])cc2)c1=O [compound 60] | – | – | 3.76 µM | > 32 µM |
| Cc1ccc2c(N)c(C#N)c(=O)n(-c3ccc([N+](=O)[O-])cc3)c2c1 [compound 115] | – | – | 0.68 µM | > 100 µM |
| N#Cc1c(N)c2ccc(Cl)cc2n(-c2ccc(Cl)c(F)c2)c1=O [compound 105] | – | – | > 100 µM | > 100 µM |
| Cc1ccc(-n2c(=O)c(C#N)cc3ccccc32)cn1 [compound 5] | – | – | > 32 µM | > 32 µM |
| N#Cc1c(NCc2ccccn2)c2ccccc2n(-c2ccc([N+](=O)[O-])cc2)c1=O [compound 131] | – | – | 15.9 µM | > 100 µM |
| CS(=O)(=O)NCc1cccc(-c2ccc3cc(C#N)c(=O)n(-c4ccc([N+](=O)[O-])cc4)c3c2)c1 [compound 50] | – | – | 3 µM | 11.8 µM |
| N#Cc1cc2ccc(-c3nccs3)cc2n(-c2ccc([N+](=O)[O-])cc2)c1=O [compound 80] | – | – | 0.13 µM | 5.02 µM |
